Experimental data: patent US20210368825A1, “FEED ADDITIVE FOR DAIRY CATTLE COMPRISING N-ACETYL-L-TRYPTOPHAN AS ACTIVE INGREDIENT” (CJ CHEILJEDANG CORPORATION, priority 2018, published 2021)
Values joined by “and” are separate entries in the source; they are usually repeats but may differ in a detail not shown here. Equal values may be shown once. “Also recorded” adds a separate entry of the source.

How the values were obtained:
[1] = system: dry cows in the late stage of gestation; assay: Analysis of feed intake of dairy cattle according to NALT feeding; type: in vivo, Holstein Friesian cows; conditions: for feed intake: basal diet supplemented with NALT (15 g/d)
Excerpt: (§1) From among Holstein Friesian cows in the late stage of gestation corresponding to 60 days before calving, 8 cows were selected in consideration of calving time (expected calving date±15 days), the number of calving (calving number), and the like, and 4 cows were assigned to each of a control (untreated) and a treated group.
(§2) In the present disclosure, as a basal diet fed during a dry period and a milking period, total mixed ration (TMR), roughage, and concentrates were provided in accordance with NRC (2001) nutrition requirements for dry cows. In the case of the treated group, evaluation was performed by supplementing N-acetyl-L-tryptophan (NALT) to the basal diet. Newborn calves were fed with colostrum for 3 days and then fed with milk obtained during a milking process for 8 weeks.
(§3) Evaluation of feed feeding before calving by feeding N-acetyl-L-tryptophan was performed for 60±8 days (error caused by difference in expected calving dates). The control was fed with the basal diet, and the treated group was fed with the basal diet supplemented with 15 g of NALT.
An amount of the feed left over was recorded for each cow at 9 a.m. every morning to measure a daily feed intake.

[2] = system: calves born from dairy cattle; assay: Analysis of weight of calf born from dairy cattle according to NALT feeding; type: in vivo, Holstein Friesian cows (calves); conditions: for weight of calf: mother fed NALT 15 g/d in dry period
Excerpt: as §1, §2, §3
Weights of calves born from dairy cattle used for the experiment were measured after drying the body surface immediately after calving (before feeding colostrum; using a scale, GL-6000S Series, G-Tech International Co., LTD), and then weights were measured four times in total for 8 weeks at an interval of 2 weeks (weight before feeding milk). Colostrum was obtained from mother cows and fed to calves at 3 a.m. and 3 p.m. until 3 days after calving. Then, 3.8 L of milk was provided per day, and the concentrates were available without limitation from a feed bucket separately for individual animals.

[3] = system: dairy cattle after calving; assay: Change in hematological properties of dairy cattle after calving according to NALT feeding; type: in vivo, Holstein Friesian cows
Excerpt: as §1, §2, §3
(§4) Blood was collected from dairy cattle and calves during 6 weeks of the dry period and immediately after calving via the jugular vein before feeding a morning feed every 2 weeks for 8 weeks. The collected blood was aliquoted into a serum tube (BD Vacutainer, Plymouth, UK) and a heparin tube (Becton-Dickinson, Belliver Industrial Estate, Plymouth, PL6 7BP, UK) and centrifuged (3,500 rpm, 15 min, 20° C.) to separate plasma.
(§5) Blood samples for analysis of changes in hematological properties such as white blood cells (WBC), lymphocytes, monocytes, granulocytes, mean corpuscular volume, mean corpuscular hemoglobin, and platelets were aliquoted into an ethylenediaminetetraacetic acid (EDTA)-treated vacutainer (Becton-Dickinson, Franklin Lakes, N.J., USA) and analyzed using a VetScan HM2 Hematology System (ABAXIS, Calif., USA).

[4] = system: calves born from dairy cattle; assay: Change in hematological properties of calves born from dairy cattle according to NALT feeding; type: in vivo, Holstein Friesian cows (calves)
Excerpt: as §1, §2, §3, §4, §5

[5] = system: calves born from dairy cattle; assay: Metabolic change of calves born from dairy cattle according to NALT feeding; type: in vivo, Holstein Friesian cows (calves)
Excerpt: as §1, §2, §3, §4
Samples for analysis of metabolic changes such as albumin, glutamic-oxalacetic transaminase (GOT), blood urea nitrogen (BUN), triglycerides (TG), cholesterol (CHO), glucose (GLU), and non-esterified fatty acid (NEFA) were aliquoted into a 1.5 mL tube (Eppendorf AG, Hamburg, Germany) in an amount of 500 μL each and stored in a deep freezer at −80° C.

[6] = calves born from NALT-treated dairy cattle

effect on hematological properties of dairy cattle compared with control [3]: did not significantly affect
Monocyte ([3]; 0 wk, reference 0-0.84): 0.92 K/uL
Granulocyte ([3]; 0 wk, reference 0.6-6.7): 6.41 K/uL
Lymphocyte ([3]; 0 wk, reference 2.5-7.5): 7.99 K/uL
WBC ([3]; 0 wk, reference 4-12): 15.32 K/uL
MCH ([3]; 0 wk, reference 11-17): 16.80 pg
MCV ([3]; 0 wk, reference 40-60): 47.00 fL
Platelet ([3]; 0 wk, reference 100-800): 348.75 K/ul
Monocyte, total AVG ([3]; average 0 to 8 weeks, reference 0-0.84): 0.91 K/uL
Granulocyte, total AVG ([3]; average 0 to 8 weeks, reference 0.6-6.7): 5.18 K/uL
Lymphocyte, total AVG ([3]; average 0 to 8 weeks, reference 2.5-7.5): 7.86 K/uL
WBC, total AVG ([3]; average 0 to 8 weeks, reference 4-12): 13.95 K/uL
MCH, total AVG ([3]; average 0 to 8 weeks, reference 11-17): 16.60 pg
MCV, total AVG ([3]; average 0 to 8 weeks, reference 40-60): 46.55 fL
Platelet, total AVG ([3]; average 0 to 8 weeks, reference 100-800): 480.51 K/ul
SMILES: CC(=O)N[C@@H](Cc1c[nH]c2ccccc12)C(=O)O [NALT, N-acetyl-L-tryptophan]
overall feed intake compared with control ([1]; 6 weeks of dry period): numerical increase; also recorded: numerically increased
feed intake ([1]; week 0 of dry period): 6.63 kg
feed intake ([1]; week 1 of dry period): 6.85 kg
feed intake compared with control ([1]; week 2, p<0.05): statistically significant increase
feed intake ([1]; week 2 of dry period): 7.73 kg
feed intake ([1]; week 3 of dry period): 7.62 kg
increase in feed intake compared with control ([1]; week 4, control 6.46 kg): 1.43 kg
feed intake ([1]; week 4 of dry period): 7.69 kg
feed intake ([1]; week 5 of dry period): 7.63 kg
weight of calf, Increment ([2]; 0 to 8 wk): 28.28 kg
weight of calf ([2]; 0 wk (birth weight)): 41.43 kg
weight of calf ([2]; 2 wk after birth): 46.05 kg
weight of calf ([2]; 4 wk after birth): 52.75 kg
weight of calf ([2]; 6 wk after birth): 60.95 kg
weight of calf ([2]; 8 wk after birth): 69.70 kg
weight of calf, total AVG ([2]; average 0 to 8 wk): 54.18 kg
birth weight of calves greater than control ([2]; week 0, on average): 5.47 kg and 5.53 kg
average weight of calves greater than control ([2]; week 2): 5.1 kg
average weight of calves greater than control ([2]; week 4): 4.67 kg
average weight of calves greater than control ([2]; week 6): 4.22 kg
average weight of calves greater than control ([2]; week 8): 5.9 kg
average weight of calves greater than control ([2]; weeks 2, 4, 6 and 8 overall): about 5 kg
initial index of mean corpuscular hemoglobin (MCH) of newborn calves compared with control [4, 6]: statistically significant difference
initial index of mean corpuscular volume (MCV) of newborn calves compared with control [4, 6]: statistically significant difference
monocyte index of newborn calves compared with control [4, 6]: significant differences
Monocyte ([4]; calves, 0 wk, reference 0-0.84): 0.32 K/uL
Granulocyte ([4]; calves, 0 wk, reference 0.6-6.7): 9.68 K/uL
Lymphocyte ([4]; calves, 0 wk, reference 2.5-7.5): 3.72 K/uL
WBC ([4]; calves, 0 wk, reference 4-12): 13.72 K/uL
MCH ([4]; calves, 0 wk, reference 11-17, P 0.056): 12.95 pg
MCV ([4]; calves, 0 wk, reference 40-60, P 0.027): 39.00 fL
Platelet ([4]; calves, 0 wk, reference 100-800): 512.75 K/ul
Monocyte, total AVG ([4]; calves, average 0 to 8 weeks, reference 0-0.84, P 0.031): 0.53 K/uL
Granulocyte, total AVG ([4]; calves, average 0 to 8 weeks, reference 0.6-6.7): 4.69 K/uL
Lymphocyte, total AVG ([4]; calves, average 0 to 8 weeks, reference 2.5-7.5): 6.93 K/uL
WBC, total AVG ([4]; calves, average 0 to 8 weeks, reference 4-12): 12.14 K/uL
MCH, total AVG ([4]; calves, average 0 to 8 weeks, reference 11-17): 11.20 pg
MCV, total AVG ([4]; calves, average 0 to 8 weeks, reference 40-60): 31.80 fL
Platelet, total AVG ([4]; calves, average 0 to 8 weeks, reference 100-800): 584.35 K/ul
immune response of the calves born from dairy cattle ([4]; conclusion drawn from hematology of calves): positive effects
glucose (Glu) index of newborn calves compared with control ([5]; calves of the NALT-treated group, 8 weeks after birth): statistically significant difference; also recorded: decreasing a blood glucose level
Albumin ([5]; calves, 0 wk): 2.50 g/dL
BUN ([5]; calves, 0 wk): 10.00 mg/dL
CHO ([5]; calves, 0 wk): 33.00 mg/dL
GLU ([5]; calves, 0 wk): 54.75 mg/dL
GOT ([5]; calves, 0 wk): 47.25 U/L
TG ([5]; calves, 0 wk): 14.50 mg/dL
Albumin, total AVG ([5]; calves, average 0 to 8 weeks): 3.36 g/dL
BUN, total AVG ([5]; calves, average 0 to 8 weeks): 11.30 mg/dL
CHO, total AVG ([5]; calves, average 0 to 8 weeks): 109.30 mg/dL
GOT, total AVG ([5]; calves, average 0 to 8 weeks): 62.55 U/L
TG, total AVG ([5]; calves, average 0 to 8 weeks): 34.40 mg/dL
GLU, total AVG ([5]; calves, average 0 to 8 weeks, P 0.015): 78.95 mg/dL
